According to patent EP3167873A1, “AQUEOUS SOLUTION OF CONDENSATION PRODUCTS OF TAURINAMIDE AND METHYLENE GLYCOL FOR USE AS ANTI-INFECTIVE AGENT IN THE IMPLANTATION OF DEVICES IN CARDIAC SURGERY” (Weis, Christian Edwin, priority 2015, dated 2017):

Assays:
Infektionen [1] = settings: irrigation (wound rinsing); cited from earlier work
ESKAPE Pathogene = settings: cited from earlier work
Infektionen [2] = assay: Clinical use in pacemaker/ICD implantation: device treated and pocket rinsed, infections observed after implantation; format: in vivo, Patienten
Text: Bei der Verwendung wird üblicherweise so vorgegangen, dass die implantierbare Vorrichtung vor der Implantation für die zur Erzielung der gewünschten optimalen antimikrobiellen Wirkung und zur vollständigen Benetzung aller Oberflächen der Vorrichtung erforderliche Zeit, gemäß einer bevorzugten Praxis etwa 20 Minuten, in die Lösung eingelegt wird und danach die implantierbare Vorrichtung, z.B. das Gehäuse eines Herzschrittmachers, mit einem Film der wässrigen Lösung auf ihrer Oberfläche in die vom operierenden Chirurgen vorbereitete Tasche implantiert wird.
Die Tasche wird anschließend mit der restlichen Lösung (ca. 100 ml) gespült.
In einer kardiologischen Station eines akademischen Lehrkrankenhauses, in der routinemäßig und in großer Zahl Patienten Herzschrittmacher implantiert werden, gehörte es zur Praxis, zur Infektionsvermeidung die zu implantierenden Herzschrittmachergehäuse während der Implantation mit einer Lösung von Wasserstoffperoxid zu behandeln, wobei gleichzeitig eine Wundspülung mit Wasserstoffperoxid stattfindet. Dabei kommt es zur Freisetzung von Sauerstoff und starkem Aufschäumen. Trotz der bakteriziden Eigenschaften von verdünntem Wasserstoffperoxid ist die Wirkung der Behandlung als Infektionsprophylaxe bei der Implantation von Geräten nicht verifiziert. […]

[3] = system: VRE (Vancomycin-resistente Enterokokken); settings: cited from earlier work
[4] = system: MRSA (Methicillin-resistenter Staphylococcus aureus); settings: cited from earlier work
Biofilme = settings: cited from earlier work
Bakterien = settings: contact of the solution with microorganisms / contaminated surfaces; cited from earlier work
[5] = design: species or system Patienten; settings: in vivo
Text: Schrittmacherimplantationen unter erfindungsgemäßer Verwendung einer 2,0 Gew.-%igen wässrigen Taurolidinlösung sind in der nachfolgenden Tabelle 1 tabellarisch erfasst. Die Tabelle gibt dabei die Befunde für 45 Implantationen, einschließlich von 9 Fällen des Austauschs eines Aggregats gegen ein neues, wieder, die im Zeitraum zwischen Februar und September 2015 erfolgten, wobei in allen Fällen die angegebene 2,0 Gew.-%ige wässrige Taurolidinlösung wie beschrieben zur Anwendung kam.

In the case of Povidon-Iod, the “Verbesserung der Infektionsrate” value (Infektionen [1]) is given as “keine nennenswerte Verbesserung beobachtet”.

In the case of `O=S1(=O)CCN(CN2CCS(=O)(=O)NC2)CN1` [Taurolidin], the Wirksamkeit (ESKAPE Pathogene) is listed as “voll wirksam”, the Infektion (Infektionen [2]; 45 implantations of Tabelle 1 (February to September 2015), 2,0 Gew.-% aqueous Taurolidin solution, observed up to filing date) is listed as “bei keinem einzigen der Patienten eine Infektion beobachtet” and the Infektionen (Infektionen [2]; pacemaker laid about 20 min in 2,0 Gew.-% Taurolidin solution before implantation, pocket rinsed with rest (ca. 100 ml), comparable number of implantations) is listed as “keinerlei Infektionen beobachtet”. For the same molecule, the Wirksamkeit [3] was “voll wirksam”, the Wirksamkeit [4] was “voll wirksam” and the “Wirksamkeit gegen Biofilme” value (Biofilme) was “wirksam”. The “Kontaktdauer bis zur vollen antibakteriellen Wirkung” value (Bakterien) was at least 10 Minuten and the Wundheilung [5] was “gute, ungestörte Wundheilung”.
